Reference: patent US20260335282A1, “NOVEL 3-ARYLIDENE-2-INDOLINONE DERIVATIVES FOR THERAPEUTIC USE” (ISTANBUL UNIVERSITESI REKTORLUGU, priority 2022, published 2026)
Entries after “also recorded” stand apart in the source; their conditions may differ.

Experiments:
Assay type in all cases: cell-based, human
A498 cells = assay: MTT cytotoxicity, kidney cancer cells A498; details: MTT
From the text: (§1) The cytotoxicity, general tyrosine kinase inhibitory effects and cell death (apoptosis/necrosis) assays of 1-benzyl-3-(1H-indol-3-ylmethylidene)-1,3-dihydro-2H-indol-2-one derivatives (Formula 5) of the present invention are studied by the following methods. […] HUVEC (human umbilical vein endothelial cell), MCF-10F (human breast epithelial cell) and Beas2b (human lung bronchial epithelial cell) cell lines have been used as healthy control cells in MTT experiments.
(§2) Beas2b (human lung bronchiole epithelial cell) and HEK293 (renal tubule epithelium) cells used as normal cell lines were cultured in RPMI medium, and HUVEC (human umbilical cord endothelial cells) and MCF-10F (human breast epithelial cell) cells are cultured in DMEM medium containing 100 µg/ml penicillin/streptomycin. The cells, which covered 70% of the culture flask, are washed with phosphate buffer and then removed from the surface of the flask by application of trypsin-ethylenediamine tetraacetic acid (Trypsin-EDTA; 0.25%) solution, passaged, counted and seeded on appropriate plates before each experiment. Cells are treated with a total of 45 2-indolinone compounds (5) at concentrations of 0.1, 1, 5 and 10 μM. Stock compounds are prepared in 1 ml dimethylsulfoxide (DMSO) and 4 different dilutions were prepared with medium and performed to the cells. Control group cells are treated with DMSO at a similar concentration to the experimental groups.
(§3) MTT (3-(4,5-dimethylthiazol-2-yl)-2,5-diphenyl-2H-tetrazolium bromide) colorimetric assay provides quantitation of viable cells with ongoing mitochondrial activity in culture medium. According to the standard procedure in cell culture conditions, cells are maintained in RPMI-1640 and DMEM culture media containing 10% FBS and 1% penicillin/streptomycin. The trypan blue test is used for cell counts.
(§4) The effects of 45 2-indolinone compounds (5) on cell viability in all cancer cell lines are investigated by MTT assay. Cells are seeded in a 96-well flat bottom plate with 5000 cells in each well and 2-indolinone compounds (5) at concentrations of 0.1, 1, 5 and 10 μM are performed to the cells the next day. After 48 and/or 72 hours following treatment with 2-indolinone compounds, 50 μl of the supernatant is slowly discarded (as it was acid medium) and MTT at a concentration of 5 mg/ml is added to each well in a volume of 10 μl. After incubation for 4 hours, the formazan crystals formed in the wells are dissolved by adding 100 μl DMSO and the optical density is read at 570 nm test wavelength and 630 nm reference wavelength. Cell viability is expressed as % cell viability by comparing the absorbance of control and test wells. IC50 value is calculated from the dose-response curves prepared for each compound. In addition, the possible DMSO effect is eliminated by preparing negative control wells compatible with the amount of DMSO contained in the compounds. To understand the reaction of the compounds with MTT, cell-free (MTT+compounds) negative controls are prepared at the concentrations used (Mosmann, 1983). […] The absorbance values obtained are compared to the control and statistically evaluated by unpaired t-test using “Graphpad Prism 5.04” software. “P<0.05” is accepted as significant. When evaluating cytotoxic effects, the present inventors aim for the inventive compounds to be effective in cancer cells and ineffective in healthy cells. The inventive compounds have also been compared with sunitinib, one of the reference chemotherapy drugs currently used in treatment.
(§5) Among the compounds of the present invention, those that killed cancer cells by at least 50% (p<0.05) are selected and tested whether a 10-fold concentration of the M concentration at the IC50 value is toxic to normal healthy cells.

A549 cells = assay: MTT cytotoxicity, lung cancer cells A549; details: no * mark (incubation time not specified)
From the text: as §1, §2, §3, §4, §5

MCF-10F/Beas2b cells = assay: MTT cytotoxicity, healthy cells MCF-10F/Beas2b; details: for Selectivite Index, MCF-10F/Beas2b (Table 2): MCF-10F/Beas2b vs colon or pancreas cancer cells, cancer line not given; for IC50: MTT
From the text: as §1, §2, §3, §4, §5

MIAPaCa-2 cells [1] = assay: MTT cytotoxicity, pancreas cancer cells MIAPaCa-2; details: for selectivity index: MCF-10F/Beas2b vs MIAPaCa-2; for IC50: MTT
From the text: as §1, §2, §3, §4

MDA-MB-231 cells = assay: MTT cytotoxicity, breast cancer cells MDA-MB-231; details: read-out: IC50, MDA-MB-231 (breast); MTT, no * mark (incubation time not given)
From the text: as §1, §2, §3, §4, §5

[2] = system: general tyrosine kinase activity in MIA PaCa-2 pancreas cancer cells; assay: General tyrosine kinase activity (ELISA) in MIAPaCa-2 cells; details: 72 hours, IC50 concentration
Protocol: Takara Universal Tyrosine Kinase Assay Kit is used to determine the effects of 11 2-indolinone compounds (Y1, Y2, Y3, Y4, Y5, Y8, […], […], Y21, Y23, 20C, 22C) on general tyrosine kinase activity in cancer cells. Cells are seeded in 6-well plates (4.10^5 cells/well) and the IC50 concentration of each selected molecule is performed to the cells for 48 or 72 hours. Cells in the control group are incubated with medium only. At the end of the incubation period, the cells in each well are washed with PBS and cells are removed from the wells using a cell scraper via 1 ml of the extraction buffer in the kit. The cell lysate is transferred to ependorf tubes and centrifuged at 10.000 g for 10 minutes at +4° C. and the supernatant is used as a sample for activity determination. After the extracts obtained from the control and experimental groups are diluted 1:25, 40 μl extracts is transferred to two wells in the 96-well plate in the kit. In addition, the standard solution in the kit is diluted according to the kit instructions and each concentration is transferred 40 μl into three wells. 10 μl of 40 mM ATP-2Na solution is added to all wells and the plate is incubated at 37° C. for 30 minutes. After incubation, all wells are washed 4 times with wash buffer. 100 μl of blocking solution is added to each well and incubated again at 37° C. for 30 minutes. After incubation, the liquid in the wells is discarded and 50 μl of anti-phosphotyrosine-HRP solution is added to each well and incubated at 37° C. for 30 minutes. The wells are washed again four times with wash buffer and 100 μl of HRP-substrate solution (TMBZ) is added to each well and incubated at 37° C. for 15 minutes. The reaction is finished by adding 100 μl of stop solution to each well and the optical density in each well is measured at 405 nm with a microplate reader (BioTek, USA). The tyrosine kinase activity in each sample is calculated from the standard curve obtained from the absorbance values of the standard solutions with the kit (Chan W Y, Lau P M, Yeung K W, Kong S K. The second generation tyrosine kinase inhibitor dasatinib induced eryptosis in human erythrocytes—An in vitro study. Toxicol Lett. 2018; 295:10-21). This activity is normalized compared to the control group by dividing by the amount of protein in each sample.
The effects of 11 2-indolinone compounds (Y1, Y2, Y3, Y4, Y5, Y8, Y14, Y21, Y23, 20C and 22C) having the structure of formula (5), which are prominent with their cytotoxicity in A498, MIAPaCa-2 and HCT-116 cancer cell lines and nontoxic properties in healthy cells, on general tyrosine kinase activity in cancer cells are determined.

HCT-116 cells = assay: MTT cytotoxicity, colon cancer cells HCT-116; details: no * mark (incubation time not specified)
From the text: as §1, §2, §3, §4

MCF-7 cells = assay: MTT cytotoxicity, breast cancer cells MCF-7; details: MTT, no * mark (incubation time not specified)
From the text: as §1, §2, §3, §4, §5

CAKI-1 cells = assay: MTT cytotoxicity, kidney cancer cells CAKI-1
From the text: as §1, §2, §3, §4, §5

HT-29 cells = assay: MTT cytotoxicity, colon cancer cells HT-29; details: MTT, no * mark (incubation time not specified)
From the text: as §1, §2, §3, §4

HUVEC cells = assay: MTT cytotoxicity, healthy cells HUVEC; details: for Selectivite Index, HUVEC (Table 2): HUVEC vs colon or pancreas cancer cells, cancer line not given; for IC50: MTT, no * mark (incubation time not specified)
From the text: as §1, §2, §3, §4, §5

MIAPaCa-2 cells [3] = assay: Apoptosis/necrosis detection, Annexin V/PI flow cytometry, MiaPaca-2
Protocol: (§6) After incubation with 2-indolinone compounds (IC50 μM concentration; 48 and/or 72 hours), cells are washed twice with PBS and the cell pellet is suspended in Annexin V binding buffer. After this incubation, cells are incubated with FITC-conjugated Annexin V and propidium iodine staining solution for 15 minutes in the dark and at room temperature. Then, cells are analyzed by flow cytometry (Beckman coulter, Navios) (Wlodkowic, D., Skommer, J, Darzynkiewicz, Z. 2009. Flow cytometry-based apoptosis detection, Methods Mol Biol., 559, 1-14).

[4] = system: pancreas and kidney cancer cells; assay: Apoptosis detection, Annexin V/PI flow cytometry, pancreas and kidney cancer cells
Protocol: as §6
Whether the 2-indolinone derivatives (5) with the highest selectivity index and general TKI activity stimulated apoptosis and necrosis is determined by Annexin V and propidium iodine staining in pancreas and kidney cancer cells. Annexin V/PI flow cytometry apoptosis values of the tested compounds Y1, Y2, Y3, Y4, Y8 and Y14 are found to be 40% and above in correlation with MTT results. The apoptosis rates of the control groups and the substances are analyzed by t test in GraphPad version 9.0.

[5] = no * mark (incubation time not specified)
[6] = *: effective 72 hours after incubation

Cc1ccc(CN2C(=O)/C(=C\c3c[nH]c4ccccc34)c3ccccc32)cc1 [Y21]
IC50 (A498 cells; [5]): 4.06 µM | IC50 (A549 cells): > 10 µM | Selectivite Index, MCF-10F/Beas2b (Table 2) (MCF-10F/Beas2b cells): > 25.00 | selectivity index (MIAPaCa-2 cells [1]): > 25 | IC50 (MIAPaCa-2 cells [1]): 0.4 µM | IC50 (MIAPaCa-2 cells [1]; [5]): 0.4 µM | IC50 (MDA-MB-231 cells): > 10 µM | general tyrosine kinase activity compared to control [2]: significantly decreased | IC50 (HCT-116 cells): 3.14 µM | IC50 (MCF-7 cells): 8.77 µM | IC50 (CAKI-1 cells; [5]): > 10 µM | IC50 (HT-29 cells): > 10 µM | Selectivite Index, HUVEC (Table 2) (HUVEC cells): 6.15 | IC50 (HUVEC cells): 2.46 µM

O=C1/C(=C\c2c[nH]c3ccccc23)c2cc(F)ccc2N1Cc1ccccc1 [Y5]
IC50 (A498 cells; [5]): 4.32 µM | IC50 (A549 cells): 7.81 µM | Selectivite Index, MCF-10F/Beas2b (Table 2) (MCF-10F/Beas2b cells): > 37.04 | selectivity index (MIAPaCa-2 cells [1]): > 37 | IC50 (MIAPaCa-2 cells [1]; [5]): 0.27 µM | IC50 (MDA-MB-231 cells): 7.94 µM | general tyrosine kinase activity compared to control [2]: significantly decreased; also recorded: decreased the general tyrosine kinase activity | IC50 (HCT-116 cells): 2.05 µM | IC50 (MCF-7 cells): 4.44 µM | necrosis compared to control (MIAPaCa-2 cells [3]; MiaPaca-2): did not cause necrosis | apoptosis (early and late) compared to control (MIAPaCa-2 cells [3]; MiaPaca-2, IC50 values): increase in apoptosis at IC50 values was statistically significant | IC50 (CAKI-1 cells; [5]): 3.42 µM | IC50 (HT-29 cells): 2.98 µM | Selectivite Index, HUVEC (Table 2) (HUVEC cells): 8.04 | IC50 (HUVEC cells): 2.17 µM

O=C1/C(=C\c2c[nH]c3ccccc23)c2cc(Cl)ccc2N1Cc1ccccc1 [Y2]
IC50 (A498 cells; [5]): 2.36 µM | IC50 (A549 cells): 4.04 µM | Selectivite Index, MCF-10F/Beas2b (Table 2) (MCF-10F/Beas2b cells): > 20.83 | selectivity index (MIAPaCa-2 cells [1]): > 21 | IC50 (MIAPaCa-2 cells [1]; [5]): 0.48 µM | IC50 (MDA-MB-231 cells): 4.96 µM | general tyrosine kinase activity compared to control [2]: significantly decreased; also recorded: decreased the general tyrosine kinase activity | Annexin V/PI flow cytometry apoptosis values [4]: ≥ 40% | IC50 (HCT-116 cells): 1.44 µM | IC50 (MCF-7 cells): 4.16 µM | IC50 (CAKI-1 cells; [5]): 4.25 µM | IC50 (HT-29 cells): 1.52 µM | Selectivite Index, HUVEC (Table 2) (HUVEC cells): 2.21 | IC50 (HUVEC cells): 1.06 µM

Cc1cccc(CN2C(=O)/C(=C\c3c[nH]c4ccccc34)c3cc(F)ccc32)c1 [13C]
IC50 (A498 cells; [5]): 2.66 µM | IC50 (A549 cells): 3.43 µM | IC50 (MCF-10F/Beas2b cells; [5]): 2.63 µM | IC50 (MIAPaCa-2 cells [1]; [6]): 1.51 µM | IC50 (MDA-MB-231 cells): > 10 µM | IC50 (HCT-116 cells): > 10 µM | IC50 (MCF-7 cells): > 10 µM | IC50 (CAKI-1 cells; [5]): > 10 µM | IC50 (HT-29 cells): > 10 µM | IC50 (HUVEC cells): 2.24 µM

Cc1ccc2c(c1)/C(=C/c1c[nH]c3ccccc13)C(=O)N2Cc1ccc(F)cc1 [45C]
IC50 (A498 cells; [6]): 0.78 µM | IC50 (A549 cells): 2.22 µM | Selectivite Index, MCF-10F/Beas2b (Table 2) (MCF-10F/Beas2b cells): 6.14 | IC50 (MCF-10F/Beas2b cells; [6]): 2.89 µM | IC50 (MIAPaCa-2 cells [1]; [5]): > 10 µM | IC50 (MDA-MB-231 cells): > 10 µM | IC50 (HCT-116 cells): 0.47 µM | IC50 (MCF-7 cells): > 10 µM | IC50 (CAKI-1 cells; [6]): 4.91 µM | IC50 (HT-29 cells): > 10 µM | Selectivite Index, HUVEC (Table 2) (HUVEC cells): 5.57 | IC50 (HUVEC cells): 2.62 µM

O=C1/C(=C\c2c[nH]c3ccccc23)c2cc(Cl)ccc2N1Cc1ccc(Cl)cc1 [19C]
IC50 (A498 cells; [5]): 0.51 µM | IC50 (A549 cells): 5.55 µM | IC50 (MCF-10F/Beas2b cells; [5]): 1.87 µM | IC50 (MIAPaCa-2 cells [1]; [5]): > 10 µM | IC50 (MDA-MB-231 cells): > 10 µM | IC50 (HCT-116 cells): > 10 µM | IC50 (MCF-7 cells): 3.16 µM | IC50 (CAKI-1 cells; [5]): > 10 µM | IC50 (HT-29 cells): > 10 µM | IC50 (HUVEC cells): 1.87 µM
